Assay results reported in ChEMBL document CHEMBL1157089, “Antitrypanosomal cyclic polyketide peroxides from the Australian marine sponge Plakortis sp” (J Nat Prod, 2010).

Experiments:
[1] = tested on: Trypanosoma brucei brucei; test: Antitrypanosomal activity against Trypanosoma brucei brucei BS427 after 48 hrs by alamar blue assay; type: functional, organism-based; conditions: BS427, 48 h
HEK293 [2] = test: Cytotoxicity against HEK293 cells after 48 hrs by alamar blue assay; type: cell-based; conditions: Homo sapiens, HEK293, 48 h
[3] = Selectivity ratio of IC50 for HEK293 cells to IC50 for Trypanosoma brucei brucei BS427; type: ADME, cell-based; conditions: human, read-out: Ratio IC50
HEK293 [4] = test: Cytotoxicity against HEK293 cells after at 83 uM 48 hrs by alamar blue assay; type: cell-based; conditions: human, hek293, 48 h

| SMILES | IC50 [1] [nM] | IC50 (HEK293 [2]) [nM] | selectivity ratio [3] | Activity (HEK293 [4]) [%] |
| --- | --- | --- | --- | --- |
| C=C1CCC[C@@H]2[C@@H](CC[C@@]3(C)CC[C@H]([C@H](C)C(=O)O)OO3)[C@H](C)CC[C@@]12C [SIGMOSCEPTRELLIN B] | 510 | – | – | – |
| CC[C@@H](/C=C/C(C)=O)C[C@H](C)C[C@@]1(CC)C[C@@H](CC)[C@@H](CC(=O)O)OO1 | 49 | 5.1 | 105 | – |
| CC[C@H](C[C@H](C)C[C@@]1(CC)C[C@@H](CC)[C@@H](CC(=O)O)OO1)C(=O)O | 940 | – | – | 100 |
